Assay results: patent US20250263404A1, “AMINOPYRIDINES AS ACTIVATORS OF PI3 KINASE” (UCL Business Ltd, priority 2021, published 2025)

Legend:
ATM = target: T1, ATM (Homo sapiens, UniProt Q13315); experiment: ATM kinase assay (Phos-tag gel); assay type: biochemical; details: 200 μM 1938
T1 construct: made in house
Experimental: (§1) 133 protein kinases and 7 lipid kinases were counterscreened, with […] used at 1 μM, using the Adapta, Lantha and Z-LYTE assays (SelectScreen Kinase Profiling Service; Thermofisher—experimental details of these assays can be found here: https://www.thermofisher.com/uk/en/home/industrial/pharma-biopharma/drug-discovery-development/target-and-lead-identification-and-validation/kinasebiology/kinase-activity-assays.html. The tree representation in KinMap generated courtesy of Cell Signaling Technology, Inc. (www.cellsignal.com). mTORC1 (mTOR/RAPTOR/LST8) protein complex and ATM kinase and substrates were produced as previously described (Anandapadamanaban, M. et al. Science (New York, NY 366, 203-210 (2019); Baretic, D. et al. Sci Adv 3, e1700933 (2017). Screening of 1938 was conducted using SuperSep Phos-Tag 50 μmol/l 100×100×6.6 mm 17-well (192-18001/199-18011) gels. For ATM assays, 100 nM ATM was incubated for 30 min at 30° C. with 5 μM GST-p53 and 1 mM ATP, in the absence or presence of 200 μM 1938 in ATM Kinase Buffer (50 mM HEPES pH 7.5, 100 mM NaCl, 10% glycerol, 2 mM […], 5 mM MgCl2). […] Gels were then stained using InstantBlue™ Coomassie stain, and then quantified using BioRad Image Lab Software. […]

[1] = tested on: adult rat dorsal root ganglion (DRG) cultures; experiment: Neurite outgrowth in dissociated adult rat DRG cultures; assay type: cell-based; details: 72 h
Source text: Given that there are currently no small molecule clinical-stage treatments routinely used to stimulate neuronal regeneration such as for injury to peripheral nerves, the spinal cord or optic nerves, we explored the potential of PI3Kα activation in this context.
Dorsal root ganglion (DRG) neurons were isolated from adult male (>250 g) Wistar rats as described, with DRGs from each rat cultured separately (Rayner, M. L. D. et al. Anatomical record 301, 1628-1637 (2018)). Following culling via schedule 1 (rising concentration of CO2), the spinal column was removed and stored in PBS on ice. Cord tissue was removed to expose the DRG and roots in the intervertebral foramen and the DRGS removed with forceps and scalpel under a dissecting microscope (Olympus SZ40). DRGs were manually cleaned by removal of roots, capsule and capillaries with forceps and then placed in DMEM supplemented with P/S. DRGs were treated with 0.125% collagenase type IV solution at 37° C. for 90 min, and then mechanically dissociated by trituration using a 1 ml pipette. The collagenase solution was removed by 2 rounds of centrifugation in complete DMEM (DMEM with 1% P/S and 10% FBS) at 400×g for 5 min, followed by resuspension of the DRG cell pellet in complete DMEM supplemented with 0.01 mM cytosine arabinoside. DRGs were plated in 75-cm^2 flasks coated with 0.1 mg/ml poly-D-lysine and incubated at 37° C., 5% CO2. […]

LCK = LCK (Homo sapiens, UniProt P06239); experiment: SelectScreen kinase profiling, LCK; assay type: biochemical; details: 1 μM of 1938, 50 μM ATP
Experimental: as §1

T1 sequence (Q13315 whole entry, species assumed): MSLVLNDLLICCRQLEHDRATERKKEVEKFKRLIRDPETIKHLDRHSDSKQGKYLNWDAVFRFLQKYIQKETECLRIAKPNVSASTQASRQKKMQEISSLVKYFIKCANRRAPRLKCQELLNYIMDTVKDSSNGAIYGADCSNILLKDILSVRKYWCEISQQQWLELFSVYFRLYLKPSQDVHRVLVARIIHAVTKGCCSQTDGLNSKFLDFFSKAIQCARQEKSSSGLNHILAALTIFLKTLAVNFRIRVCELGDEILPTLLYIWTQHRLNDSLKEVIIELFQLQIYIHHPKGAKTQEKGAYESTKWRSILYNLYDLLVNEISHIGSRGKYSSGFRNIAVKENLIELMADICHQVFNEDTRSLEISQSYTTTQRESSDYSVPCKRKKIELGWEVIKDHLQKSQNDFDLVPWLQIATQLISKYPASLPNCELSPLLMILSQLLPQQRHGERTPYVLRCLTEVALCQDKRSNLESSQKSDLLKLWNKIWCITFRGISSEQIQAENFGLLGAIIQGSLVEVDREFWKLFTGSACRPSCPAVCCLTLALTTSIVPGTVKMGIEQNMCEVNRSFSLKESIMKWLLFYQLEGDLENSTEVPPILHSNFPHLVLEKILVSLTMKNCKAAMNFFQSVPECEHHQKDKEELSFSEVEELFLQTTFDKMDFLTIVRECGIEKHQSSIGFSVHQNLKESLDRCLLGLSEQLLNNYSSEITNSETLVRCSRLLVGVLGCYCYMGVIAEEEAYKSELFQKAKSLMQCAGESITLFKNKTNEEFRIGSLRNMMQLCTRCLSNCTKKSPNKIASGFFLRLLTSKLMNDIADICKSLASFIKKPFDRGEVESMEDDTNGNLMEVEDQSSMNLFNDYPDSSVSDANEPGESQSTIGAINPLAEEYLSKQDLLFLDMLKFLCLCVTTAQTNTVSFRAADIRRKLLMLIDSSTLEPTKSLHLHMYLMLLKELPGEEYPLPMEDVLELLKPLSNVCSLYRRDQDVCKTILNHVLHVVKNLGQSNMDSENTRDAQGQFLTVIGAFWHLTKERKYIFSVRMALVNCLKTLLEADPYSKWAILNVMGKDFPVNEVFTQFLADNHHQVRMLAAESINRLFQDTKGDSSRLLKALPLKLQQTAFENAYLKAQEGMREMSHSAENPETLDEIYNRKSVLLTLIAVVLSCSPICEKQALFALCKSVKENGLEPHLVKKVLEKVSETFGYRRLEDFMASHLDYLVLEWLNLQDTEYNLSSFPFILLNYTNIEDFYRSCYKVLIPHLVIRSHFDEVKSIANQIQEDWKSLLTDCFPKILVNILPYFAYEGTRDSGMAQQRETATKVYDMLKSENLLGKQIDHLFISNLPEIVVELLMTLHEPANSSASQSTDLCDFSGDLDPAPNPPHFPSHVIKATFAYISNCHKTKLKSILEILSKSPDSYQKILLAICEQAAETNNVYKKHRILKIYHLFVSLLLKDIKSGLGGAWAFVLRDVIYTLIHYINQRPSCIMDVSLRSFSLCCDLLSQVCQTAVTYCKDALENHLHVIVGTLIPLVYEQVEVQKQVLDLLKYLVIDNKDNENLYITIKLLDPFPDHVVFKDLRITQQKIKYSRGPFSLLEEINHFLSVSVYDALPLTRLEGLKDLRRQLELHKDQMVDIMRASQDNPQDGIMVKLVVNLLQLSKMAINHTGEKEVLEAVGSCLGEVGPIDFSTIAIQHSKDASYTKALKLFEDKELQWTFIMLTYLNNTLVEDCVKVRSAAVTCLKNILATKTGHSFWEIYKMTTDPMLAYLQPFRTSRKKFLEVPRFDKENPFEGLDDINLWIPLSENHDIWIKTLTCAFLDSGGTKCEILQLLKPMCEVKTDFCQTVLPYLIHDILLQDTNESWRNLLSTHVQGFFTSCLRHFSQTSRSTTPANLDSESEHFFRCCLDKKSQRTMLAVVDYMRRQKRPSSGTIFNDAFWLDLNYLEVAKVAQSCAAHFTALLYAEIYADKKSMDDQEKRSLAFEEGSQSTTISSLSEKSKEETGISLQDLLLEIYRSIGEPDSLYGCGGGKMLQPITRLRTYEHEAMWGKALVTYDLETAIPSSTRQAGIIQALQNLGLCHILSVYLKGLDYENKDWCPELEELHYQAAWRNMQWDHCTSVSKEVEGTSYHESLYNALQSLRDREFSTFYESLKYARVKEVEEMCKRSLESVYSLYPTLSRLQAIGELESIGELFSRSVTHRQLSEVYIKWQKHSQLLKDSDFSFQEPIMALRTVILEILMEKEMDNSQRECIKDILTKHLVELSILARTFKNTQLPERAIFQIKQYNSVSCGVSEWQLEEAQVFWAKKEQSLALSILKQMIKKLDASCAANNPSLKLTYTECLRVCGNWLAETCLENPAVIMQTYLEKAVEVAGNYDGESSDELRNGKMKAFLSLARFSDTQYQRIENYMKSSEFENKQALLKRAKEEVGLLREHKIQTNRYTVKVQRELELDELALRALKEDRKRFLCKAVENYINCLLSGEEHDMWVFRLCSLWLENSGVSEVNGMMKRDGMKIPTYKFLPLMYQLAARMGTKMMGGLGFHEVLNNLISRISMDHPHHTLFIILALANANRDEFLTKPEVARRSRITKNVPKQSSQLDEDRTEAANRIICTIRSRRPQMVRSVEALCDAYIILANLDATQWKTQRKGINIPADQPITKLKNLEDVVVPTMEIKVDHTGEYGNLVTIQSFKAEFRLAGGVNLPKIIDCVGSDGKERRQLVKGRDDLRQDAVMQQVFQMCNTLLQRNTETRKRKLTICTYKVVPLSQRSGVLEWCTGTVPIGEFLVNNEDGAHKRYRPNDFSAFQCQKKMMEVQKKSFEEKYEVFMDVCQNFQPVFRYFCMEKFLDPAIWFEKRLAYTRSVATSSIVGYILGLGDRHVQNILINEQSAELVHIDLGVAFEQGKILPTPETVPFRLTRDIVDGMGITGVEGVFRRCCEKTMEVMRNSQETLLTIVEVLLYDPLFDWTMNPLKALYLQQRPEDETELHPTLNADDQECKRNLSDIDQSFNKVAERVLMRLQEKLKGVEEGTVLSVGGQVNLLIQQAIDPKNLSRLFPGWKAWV
Chain of LCK (P06239 whole entry): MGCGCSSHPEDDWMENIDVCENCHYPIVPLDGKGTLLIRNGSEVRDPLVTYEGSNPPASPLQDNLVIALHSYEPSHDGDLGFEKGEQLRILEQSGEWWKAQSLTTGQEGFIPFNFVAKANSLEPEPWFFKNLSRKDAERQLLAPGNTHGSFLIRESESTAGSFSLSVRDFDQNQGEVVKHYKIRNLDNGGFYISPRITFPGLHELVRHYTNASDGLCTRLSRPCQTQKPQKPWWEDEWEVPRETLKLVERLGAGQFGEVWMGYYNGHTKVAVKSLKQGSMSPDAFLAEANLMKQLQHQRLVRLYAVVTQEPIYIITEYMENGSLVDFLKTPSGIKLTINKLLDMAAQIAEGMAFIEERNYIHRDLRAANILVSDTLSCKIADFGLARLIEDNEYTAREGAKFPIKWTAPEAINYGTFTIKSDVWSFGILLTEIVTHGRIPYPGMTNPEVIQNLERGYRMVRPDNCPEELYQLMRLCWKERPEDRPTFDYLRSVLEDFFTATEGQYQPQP

SMILES: CCN1CCN(c2ccc(Nc3cc(Nc4cccc5c4N(C(C)=O)CC5)ccn3)cc2)CC1 [Example 1938]
- activity of ATM (ATM): did not affect
- neurite outgrowth ([1]; dose-dependent): significantly increased neurite outgrowth
- total length of neurites ([1]; higher 1938 concentrations): doubling the total length of neurites
- inhibition of LCK (LCK): 58%
